From PubChem BioAssay (NCI) come the findings set out here.

The structures appear in SMILES notation. Values joined by “and” are separate entries in the source; they are usually repeats but may differ in a detail not shown here. Equal values may be shown once.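 The compound was tested at five concentrations on cells cultured in 96-well plates, with a 48-hour exposure period. GI50 = concentration required for 50% inhibition of growth. TGI denotes the concentration required for complete inhibition of growth.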 Some results are limits rather than exact numbers.

The first assay concerns IGROV1 ovarian. Kind of assay: DTP human tumour cell line panel, 48 h.
In turn, `COc1cc2[nH]c(-c3ccccc3)cc(=O)c2c(OC)c1OC` yielded a concentration for total growth inhibition (TGI) above 100 µM.
In turn, `CCOP(=O)(OCC)OC1CC(n2cc(C)c(=O)n(C)c2=O)OC1CO[Si](C)(C)C(C)(C)C` (stereo not given) came in with a TGI above 100 µM.
As for `CCOC(=O)c1c(SCCN2CCOCC2)n(-c2ccccc2)c(=S)n(-c2ccccc2)c1=O`, the TGI is above 100 µM.
In the case of `O=C(NN1C(=O)CSC1c1cccc(F)c1)c1ccncc1` (stereo not given), the TGI is above 100 µM.
As for `COc1ccc(N2C(=O)C3c4[nH]c5ccccc5c4C4CCCCCCCCCC4C3C2=O)cc1` (stereo not given), the concentration for total growth inhibition (TGI) is above 10 µM.
In turn, `COc1cc(C(O)c2ccc3c(c2)OCO3)cc(OC)c1OC` (stereo not given) yielded a concentration for total growth inhibition (TGI) above 100 µM.
As for `Cc1cc(C)nc(NS(=O)(=O)c2ccc(NC(=O)c3cccc4c(NNc5ccc(S(=O)(=O)N=C(N)N)cc5)c5ccccc5nc34)cc2)n1`, the total growth inhibition concentration (TGI) is above 50 µM.
Turning to `CCOC(=O)c1sc2ncnc(N)c2c1C`, the TGI was above 100 µM.
`C=CCN1C(=O)/C(=C/c2ccc(C)cc2)N=C1SC1OC(COC(C)=O)C(OC(C)=O)C(OC(C)=O)C1OC(C)=O` (stereo not given): the GI50 was > 100 µM and 24.7 µM; the TGI is above 100 µM.
`N#Cc1c(-c2ccccc2)c2c([nH]c1=O)-c1cc([N+](=O)[O-])ccc1CCC2` had a TGI above 100 µM.
`O=[N+]([O-])c1cc(Cl)ccc1Sc1ccccc1` yielded a TGI above 100 µM.
The same measure, in the same setting: with `Nc1ccc(-c2nn3c(COc4ccc(Cl)cc4)nnc3s2)cc1` the figure was above 100 µM; with `COP(=O)(OC)C(Nc1ccc(Cc2ccc(NC(c3ccco3)P(=O)(OC)OC)cc2)cc1)c1ccco1` (stereo not given), above 100 µM; with `C(=C\c1ccccc1)/COc1ccccc1C(N1CCOCC1)n1nc2ccccc2n1` (stereo not given), 41.6 µM.
On the same count and under the same terms, with `O=C(CC(=O)Nc1ccccc1)NNC(c1cc(N=Nc2ccc(Br)cc2)ccc1O)P(O)O` (stereo not given) the figure was above 10 µM.
The compound `c1ccc([P+](CCCCCCCC[P+](c2ccccc2)(c2ccccc2)c2ccccc2)(c2ccccc2)c2ccccc2)cc1` gave a TGI above 23.9 µM.
In turn, `c1ccc2[nH]c(CNc3ccc(C4C[Se]N=N4)cc3)nc2c1` (stereo not given) registered a concentration for total growth inhibition (TGI) above 100 µM.
Take `O=C1C(C(O)(C(F)(F)F)C(F)(F)F)CCC1C(O)(C(F)(F)F)C(F)(F)F` (stereo not given): the TGI was above 86 µM.
In the case of `COc1ccc(-n2nc(C)c3c(Nc4ccc(NC(=O)Nc5ccc(Cl)c(C(F)(F)F)c5)cc4)ncnc32)cc1`, the GI50 was 2.23 µM and the concentration for total growth inhibition (TGI) turned out to be 7.23 µM.
For `Nc1ccccc1C(=O)C(Br)C(Br)c1ccc2c(c1)OCO2` (stereo not given), the concentration for total growth inhibition (TGI) was above 100 µM.
The compound `O=C1C=CC(=O)C(CNc2ccc(C(=O)OCc3ccccc3)cc2)=C1` had a concentration for total growth inhibition (TGI) of 12.6 µM.
In the case of `C/C(=C\CO)CC/C=C(\C)CNc1ccc([N+](=O)[O-])cc1`, the TGI is above 100 µM.

The subject of another assay is U251 CNS. Kind of assay: DTP human tumour cell line panel, 48 h.
In the case of `COc1cc2[nH]c(-c3ccccc3)cc(=O)c2c(OC)c1OC`, the TGI is above 100 µM.
On the same count and under the same terms, with `CCOP(=O)(OCC)OC1CC(n2cc(C)c(=O)n(C)c2=O)OC1CO[Si](C)(C)C(C)(C)C` (stereo not given) the figure was above 100 µM; with `N#C/C(=C1\SC(N=Nc2ccc(Cl)cc2)C(=O)N1c1ccccc1)c1nc2ccccc2[nH]1` (stereo not given), 44.8 µM.
`CCOC(=O)c1c(SCCN2CCOCC2)n(-c2ccccc2)c(=S)n(-c2ccccc2)c1=O`: the TGI was above 100 µM.
`O=C(NN1C(=O)CSC1c1cccc(F)c1)c1ccncc1` (stereo not given) registered a TGI above 100 µM.
In turn, `COc1ccc(N2C(=O)C3c4[nH]c5ccccc5c4C4CCCCCCCCCC4C3C2=O)cc1` (stereo not given) registered a TGI above 10 µM.
On the same count and under the same terms, to `COc1cc(C(O)c2ccc3c(c2)OCO3)cc(OC)c1OC` (stereo not given) belongs above 100 µM.
In the case of `Cc1cc(C)nc(NS(=O)(=O)c2ccc(NC(=O)c3cccc4c(NNc5ccc(S(=O)(=O)N=C(N)N)cc5)c5ccccc5nc34)cc2)n1`, the TGI was above 50 µM.
Compound `CCOC(=O)c1sc2ncnc(N)c2c1C` yielded a concentration for total growth inhibition (TGI) above 100 µM.
Regarding `C=CCN1C(=O)/C(=C/c2ccc(C)cc2)N=C1SC1OC(COC(C)=O)C(OC(C)=O)C(OC(C)=O)C1OC(C)=O` (stereo not given), the TGI is above 100 µM.
In the case of `N#Cc1c(-c2ccccc2)c2c([nH]c1=O)-c1cc([N+](=O)[O-])ccc1CCC2`, the concentration for total growth inhibition (TGI) was above 100 µM.
`O=[N+]([O-])c1cc(Cl)ccc1Sc1ccccc1` showed a TGI above 100 µM.
As to `Nc1ccc(-c2nn3c(COc4ccc(Cl)cc4)nnc3s2)cc1`, the TGI is above 100 µM.
The same measure, in the same setting: with `COP(=O)(OC)C(Nc1ccc(Cc2ccc(NC(c3ccco3)P(=O)(OC)OC)cc2)cc1)c1ccco1` (stereo not given) the figure was 21.4 µM; with `C(=C\c1ccccc1)/COc1ccccc1C(N1CCOCC1)n1nc2ccccc2n1` (stereo not given), 17.6 µM.
`O=C(CC(=O)Nc1ccccc1)NNC(c1cc(N=Nc2ccc(Br)cc2)ccc1O)P(O)O` (stereo not given) gave a concentration for total growth inhibition (TGI) above 10 µM.
Regarding `c1ccc([P+](CCCCCCCC[P+](c2ccccc2)(c2ccccc2)c2ccccc2)(c2ccccc2)c2ccccc2)cc1`, the concentration for total growth inhibition (TGI) was above 100 µM.
Regarding `c1ccc2[nH]c(CNc3ccc(C4C[Se]N=N4)cc3)nc2c1` (stereo not given), the TGI is above 100 µM.
Consider `O=C1C(C(O)(C(F)(F)F)C(F)(F)F)CCC1C(O)(C(F)(F)F)C(F)(F)F` (stereo not given), for which the TGI is 99.5 µM.
Turning to `C[C@H]1OC(=O)[C@@H]2N=NN(Cc3ccccc3)[C@H]12`, the TGI is above 100 µM.
Consider `COc1ccc(-n2nc(C)c3c(Nc4ccc(NC(=O)Nc5ccc(Cl)c(C(F)(F)F)c5)cc4)ncnc32)cc1`, for which the GI50 was 1.15 µM and the concentration for total growth inhibition (TGI) was determined as 3.08 µM.
For `COc1ccc(NC(C)c2ccncc2)cc1` (stereo not given), the TGI was above 100 µM.
`Nc1ccccc1C(=O)C(Br)C(Br)c1ccc2c(c1)OCO2` (stereo not given) returned a TGI of 49.6 µM.
`O=C1C=CC(=O)C(CNc2ccc(C(=O)OCc3ccccc3)cc2)=C1` had a TGI of 19.9 µM.
`C/C(=C\CO)CC/C=C(\C)CNc1ccc([N+](=O)[O-])cc1`: the TGI was above 100 µM.

The test system of a further assay is MALME-3M melanoma. The assay can be described thus: DTP human tumour cell line panel, 48 h.
`COc1cc2[nH]c(-c3ccccc3)cc(=O)c2c(OC)c1OC`: the TGI was above 100 µM.
In the case of `CCOP(=O)(OCC)OC1CC(n2cc(C)c(=O)n(C)c2=O)OC1CO[Si](C)(C)C(C)(C)C` (stereo not given), the total growth inhibition concentration (TGI) is above 100 µM.
In turn, `N#C/C(=C1\SC(N=Nc2ccc(Cl)cc2)C(=O)N1c1ccccc1)c1nc2ccccc2[nH]1` (stereo not given) came in with a total growth inhibition concentration (TGI) of 99.1 µM.
The compound `CCOC(=O)c1c(SCCN2CCOCC2)n(-c2ccccc2)c(=S)n(-c2ccccc2)c1=O` displayed a TGI above 100 µM.
For the compound `O=C(NN1C(=O)CSC1c1cccc(F)c1)c1ccncc1` (stereo not given), the TGI is above 100 µM.
As for `COc1ccc(N2C(=O)C3c4[nH]c5ccccc5c4C4CCCCCCCCCC4C3C2=O)cc1` (stereo not given), the concentration for total growth inhibition (TGI) is above 10 µM.
As for `COc1cc(C(O)c2ccc3c(c2)OCO3)cc(OC)c1OC` (stereo not given), the total growth inhibition concentration (TGI) was above 100 µM.
In turn, `Cc1cc(C)nc(NS(=O)(=O)c2ccc(NC(=O)c3cccc4c(NNc5ccc(S(=O)(=O)N=C(N)N)cc5)c5ccccc5nc34)cc2)n1` yielded a total growth inhibition concentration (TGI) above 50 µM.
`CCOC(=O)c1sc2ncnc(N)c2c1C` came in with a TGI above 100 µM.
The compound `C=CCN1C(=O)/C(=C/c2ccc(C)cc2)N=C1SC1OC(COC(C)=O)C(OC(C)=O)C(OC(C)=O)C1OC(C)=O` (stereo not given) came in with a concentration for total growth inhibition (TGI) above 100 µM.
On to `N#Cc1c(-c2ccccc2)c2c([nH]c1=O)-c1cc([N+](=O)[O-])ccc1CCC2`, for which the concentration for total growth inhibition (TGI) is above 100 µM.
Still for that read-out and setting: to `O=[N+]([O-])c1cc(Cl)ccc1Sc1ccccc1` belongs above 100 µM.
On the same count and under the same terms, with `Nc1ccc(-c2nn3c(COc4ccc(Cl)cc4)nnc3s2)cc1` the figure was above 100 µM.
With `COP(=O)(OC)C(Nc1ccc(Cc2ccc(NC(c3ccco3)P(=O)(OC)OC)cc2)cc1)c1ccco1` (stereo not given), the total growth inhibition concentration (TGI) was above 100 µM.
In turn, `C(=C\c1ccccc1)/COc1ccccc1C(N1CCOCC1)n1nc2ccccc2n1` (stereo not given) showed a TGI of 14.4 µM.
